The source of these data is ChEMBL document CHEMBL1201862, “PubChem BioAssay data set” (2004).

Structures are written as SMILES.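 A five-concentration, 48-hour dose response in 96-well plates underlies each endpoint, interpolated linearly between surrounding concentrations. GI50 marks 50% less growth.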 Calls of active or inactive are those of the source. Cut-off read from the data, not from the text of the source: active = GI50 up to about 1.1 µM and inactive = higher. Bounds are passed on as bounds.

What all share (test): NCI anticancer screen, dose series, 48 h
Test [1] relates to UACC-62.
The subject of test [2] is HCT-116.
For test [3], the system named is HCC 2998.
In test [4] the test system is NCI-H23.
Test [5] concerns T47D.
Test [6] deals with HT-29.
Test [7] relates to CAKI-1.
Test [8] deals with EKVX.
Test [9] has as its system RXF 393.
For test [10], the system named is DU-145.
Test [11] deals with Malme-3M.
The subject of test [12] is NCI-H460.
The subject of test [13] is BT-549.
Test [14] concerns CCRF-CEM.
Test [15] deals with SK-MEL-2.
For test [16], the system named is K562.
Test [17] has as its system OVCAR-4.
In test [18] the test system is SF-268.
For test [19], the system named is A549.
Test [20] deals with KM12.

In the case of `CC(C)(C)c1ccc(NS(=O)(=O)c2ccc(N)cc2)cc1`, the GI50 in [1] is 15.7 µM (inactive); in [2] it was 18 µM (inactive); in test [3], 18.8 µM (inactive); in test [4], 26 µM (inactive); in test [5], 28.3 µM (inactive); in test [6] it was 19 µM (inactive). Moreover, the GI50 in [7] is 38.3 µM (inactive); in [8], 26.9 µM (inactive); in [9], 29.1 µM (inactive); in test [10], 30.5 µM (inactive); in test [11] it was 19.5 µM (inactive); in [12] it was 33.7 µM (inactive). Moreover, the GI50 is 23.4 µM (inactive) in test [13]; 16.3 µM (inactive) in test [14]; 19.5 µM (inactive) in test [15]; 17.8 µM (inactive) in test [16]; 35.8 µM (inactive) in [17]; 26.9 µM (inactive) in test [18]. In addition, the GI50 in [19] was 27.1 µM (inactive); in [20], 36.6 µM (inactive).

For the molecule `O=C(c1ccccc1)c1sc2c(=O)c(C(=O)c3ccccc3)c(C(=O)c3ccccc3)sc2c(=O)c1C(=O)c1ccccc1`, the GI50 is > 100 µM (inactive) in test [1]; 44.1 µM (inactive) in [2]; 19.5 µM (inactive) in [3]; 42.3 µM (inactive) in test [4]; 47.5 µM (inactive) in [5]; 33.3 µM (inactive) in test [6]. For the same molecule, the GI50 was 18.9 µM (inactive) in test [7]; > 100 µM (inactive) in test [8]; 23.8 µM (inactive) in [9]; > 100 µM (inactive) in test [10]; 75.7 µM (inactive) in test [11]; > 100 µM (inactive) in [12]. For the same molecule, the GI50 is 37.7 µM (inactive) in [13]; 23.8 µM (inactive) in test [14]; 50.6 µM (inactive) in test [15]; 15.9 µM (inactive) in test [16]; > 100 µM (inactive) in [17]; 46.7 µM (inactive) in [18]. Besides, the GI50 in test [19] and in test [20] was > 100 µM (inactive) in each case.

For `CN1C(=O)CN(NC(=O)C2=C(O)c3ccc(Br)cc3S(=O)(=O)N2)C1=S`, the GI50 in [1], in [2], in test [3], in test [4], in [5] and in test [6] was > 100 µM (inactive) throughout. Also, the GI50 in test [7] was > 100 µM (inactive); in test [8], > 100 µM (inactive); in test [9], > 100 µM (inactive); in [10], > 100 µM (inactive); in test [11], 33.4 µM (inactive); in test [12], > 100 µM (inactive). Besides, the GI50 is > 100 µM (inactive) in [13]; 19.2 µM (inactive) in test [14]; > 100 µM (inactive) in test [15]; 49.2 µM (inactive) in test [16]; > 100 µM (inactive) in test [17]; > 100 µM (inactive) in test [18]. For the same molecule, the results for the GI50 in test [19] and in test [20] were > 100 µM (inactive) and 78.3 µM (inactive), respectively.

Regarding `COP(=N[Si](C)(C)C)(OC)OC`, the GI50 in test [1], in test [2], in [3], in [4], in test [5] and in test [6] was > 100 µM (inactive) throughout. Further, the GI50 in [7], in test [8], in [9], in [10], in test [11] and in test [12] was > 100 µM (inactive) in each case. The GI50 in [13], in test [14], in [15], in test [16], in [17] and in test [18] was > 100 µM (inactive) each time. The GI50 in test [19] and in [20] was > 100 µM (inactive) in each case.

Take `CC1=NN(c2nc(N)nc(/C(C#N)=C\c3ccc([N+](=O)[O-])s3)n2)C(C)(C)C1`: the GI50 in test [1] was 0.861 µM (active); in test [2], 0.244 µM (active); in [3], 1.41 µM (inactive); in [4], 0.76 µM (active); in test [5] it was 0.0743 µM (active); in [6], 0.265 µM (active). For the same molecule, the GI50 in test [7] is 1.16 µM (inactive); in test [8], 0.817 µM (active); in [9], 0.236 µM (active); in [10], 0.24 µM (active); in [11], 0.764 µM (active); in test [12], 0.209 µM (active). The GI50 was 0.701 µM (active) in test [13]; 0.0175 µM (active) in test [14]; 0.375 µM (active) in test [15]; < 0.0178 µM (active) in test [16]; 2.55 µM (inactive) in test [17]; 0.408 µM (active) in test [18]. In addition, the GI50 in [19] was 0.887 µM (active); in [20], 0.316 µM (active).

As for `CC(=O)Nc1cccc(N2C(=O)/C(=C\c3cccc(Oc4ccccc4)c3)SC2c2ccccc2)c1` (stereo not given), the GI50 in test [1] was 60.3 µM (inactive); in test [2], 27 µM (inactive); in test [3], > 100 µM (inactive); in test [4], 83.2 µM (inactive); in test [5] it was 78.7 µM (inactive); in test [6], 80.7 µM (inactive). Also, the GI50 in [7] was > 100 µM (inactive); in test [8], > 100 µM (inactive); in test [9], 27.7 µM (inactive); in [10], > 100 µM (inactive); in test [11] it was > 100 µM (inactive); in test [12], > 100 µM (inactive). Also, the GI50 in [13] is > 100 µM (inactive); in test [14] it was 14.9 µM (inactive); in [15] it was > 100 µM (inactive); in test [16], 25.6 µM (inactive); in test [17] it was 53.5 µM (inactive); in test [18], 72.1 µM (inactive). In addition, the GI50 in test [19] is 94.8 µM (inactive); in test [20], 80.7 µM (inactive).

With `O=S(=O)(O)c1ccc2c(/N=N\c3cccc4ccccc34)c(O)c(S(=O)(=O)O)cc2c1`, the GI50 in test [1], in test [2], in test [3], in test [4], in [5] and in test [6] was > 100 µM (inactive) in each case. Moreover, the GI50 in test [7] was > 100 µM (inactive); in test [8], > 100 µM (inactive); in test [9], > 100 µM (inactive); in test [10] it was > 100 µM (inactive); in test [11], > 61.7 µM (inactive); in test [12] it was > 100 µM (inactive). The GI50 in test [13], in test [14], in test [15], in test [16], in test [17] and in test [18] was > 100 µM (inactive) each time. Further, the GI50 in test [19] and in test [20] was > 100 µM (inactive) throughout.
